In patent US10221163B2 (priority 2015, dated 2019):
pIC50: −log10 of the molar value. Like-named read-outs stand apart in the source and are kept apart here.

Legend:
[1] = test system: Pseudomonas aeruginosa MB9798 vs MB9799; conditions: ratio MITC95 PA_9798/MITC95 PA_9799
Outline: (§1)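 Steps: add fixed imipenem and/or ceftazidime (usually CLSI breakpoint) and fixed AmpC-directed class A/C inhibitor to microbroth MIC wells; titrate MBL inhibitor; record concentration regaining susceptibility for each PAO1-derived strain; divide efflux+ by efflux− value.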

[2] = test system: Pseudomonas aeruginosa efflux+ (MB9798), IMP-1; assay type: cell-based; conditions: concentration restoring susceptibility to imipenem at 2 μg/mL in the presence of a class A, C, D serine β-lactamase inhibitor closely related to relebactam
Outline: as §1

[3] = test system: Pseudomonas aeruginosa efflux− (MB9799), IMP-1; assay type: cell-based; conditions: concentration restoring susceptibility to imipenem at 2 μg/mL in the presence of a class A, C, D serine β-lactamase inhibitor closely related to relebactam
Outline: as §1

[4] = test system: Escherichia coli expressing NDM-1 (CLB30005, CLB30016); assay type: cell-based; conditions: with imipenem 1 μg/ml; 95% inhibition of bacterial growth
Outline: (§2)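 Clinical strains grown overnight on blood agar at 35°C, colonies suspended in saline, diluted 1:100 into 1.1×CAMHB. Test compound titrated with imipenem at 1 μg/ml; incubated 22–24 h at 35°C, growth read by absorbance.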

[5] = test system: Klebsiella pneumoniae expressing VIM-1 (IHMA599644); assay type: cell-based; conditions: with imipenem 1 μg/ml; 95% inhibition of bacterial growth
Outline: as §2

[6] = test system: Serratia marcescens expressing IMP-1 (CL5741); assay type: cell-based; conditions: with imipenem 1 μg/ml; 95% inhibition of bacterial growth
Outline: as §2

[7] = molecular target: VIM-1 (Pseudomonas aeruginosa (strain ATCC 15692 / DSM 22644 / CIP 104116 / JCM 14847 / LMG 12228 / 1C / PRS 101 / PAO1), UniProt A0A0F7KYQ8); test: biochemical; conditions: CCF2-FA substrate, 30 pM enzyme, 2 hours at 25° C.
Outline: (§3)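 IC50 values derive from 4-parameter fits of percent inhibition against inhibitor concentration on semi-log axes. Activity was monitored by fluorescence with the CCF2-FA substrate after a 2-hour, 25° C incubation of compound, enzyme and substrate.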

[8] = molecular target: NDM-1 (Klebsiella pneumoniae, UniProt C7C422); test: biochemical; assay type: biochemical; conditions: fluorescence assay, CCF2-FA substrate, 1 pM enzyme, 2 hours at 25° C.; read-out: NDM-1 IC50
Outline: as §3

[9] = molecular target: IMP-1 (Serratia marcescens, UniProt P52699); test: biochemical; assay type: biochemical; conditions: fluorescence assay, CCF2-FA substrate, 2 pM enzyme, 2 hours at 25° C.; read-out: IMP-1 IC50
Outline: as §3

[10] = fluorescence assay, read-out: VIM-1 IC50

NDM-1, sequence (C7C422 whole entry, looked up, species assumed): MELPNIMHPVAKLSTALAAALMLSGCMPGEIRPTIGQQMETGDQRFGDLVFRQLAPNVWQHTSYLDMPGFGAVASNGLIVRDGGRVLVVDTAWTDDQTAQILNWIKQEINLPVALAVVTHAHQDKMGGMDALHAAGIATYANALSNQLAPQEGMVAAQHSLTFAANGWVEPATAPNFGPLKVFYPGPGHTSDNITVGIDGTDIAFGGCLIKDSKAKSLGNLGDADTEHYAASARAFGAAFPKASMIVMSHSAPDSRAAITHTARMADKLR
IMP-1, sequence (P52699 whole entry, looked up, species assumed): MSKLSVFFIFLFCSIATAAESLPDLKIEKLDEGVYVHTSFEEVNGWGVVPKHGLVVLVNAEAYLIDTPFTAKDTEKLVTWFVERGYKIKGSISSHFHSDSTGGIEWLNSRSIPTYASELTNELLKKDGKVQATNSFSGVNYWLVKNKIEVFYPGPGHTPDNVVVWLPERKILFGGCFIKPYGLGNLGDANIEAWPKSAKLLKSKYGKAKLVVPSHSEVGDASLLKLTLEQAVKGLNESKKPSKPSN

Structure (SMILES)	Efflux ratio [1]	P. aeruginosa expressing IMP-1, efflux + (MB9798) MITC95 [2] [µM]	P. aeruginosa expressing IMP-1, efflux − (MB9799) MITC95 [3] [µM]	Escherichia coli expressing NDM-1 (CLB30016) MITC95 [4] [µM]	Klebsiella pneumoniae expressing VIM-1 (IHMA599644) MITC95 [5] [µM]	Serratia marcescens expressing IMP-1 (CL5741) MITC95 [6] [µM]	pIC50 ([7]; VIM-1 IC50, fluorescence assay)	pIC50 [8]	pIC50 [9]	pIC50 [7, 10]
Nc1nc2c(-c3ccc(S(=O)(=O)N[C@@H]4CN[C@@H](CO)C4)c(S(N)(=O)=O)c3-c3nnn[nH]3)cccc2[nH]1 [Example 174, 4-(2-amino-1H-benzo[d]imidazol-4-yl)-N^1-((3S,5R)-5-(hydroxymethyl)pyrrolidin-3-yl)-3-(1H-tetrazol-5-yl)benzene-1,2-disulfonamide]	1.00	1.563	1.563	3.125	3.125	1.563	9.41	9.93	8.78	
Nc1nc2c(-c3ccc(S(=O)(=O)N[C@@H]4CN[C@H](CO)C4)c(S(N)(=O)=O)c3-c3nnn[nH]3)cccc2[nH]1 [Example 175, 4-(2-amino-1H-benzo[d]imidazol-4-yl)-N^1-((3S,5S)-5-(hydroxymethyl)pyrrolidin-3-yl)-3-(1H-tetrazol-5-yl)benzene-1,2-disulfonamide]	0.50	0.7813	1.563	0.7813	3.125	1.563	9.48	9.90	9.00	
Nc1nc2c(-c3ccc(S(=O)(=O)N[C@@]4(CO)CCNC4)c(S(N)(=O)=O)c3-c3nnn[nH]3)cccc2[nH]1 [Example 176, (S)-4-(2-amino-1H-benzo[d]imidazol-4-yl)-N1-(3-(hydroxymethyl)pyrrolidin-3-yl)-3-(1H-tetrazol-5-yl)benzene-1,2-disulfonamide]	1.00	0.7813	0.7813	0.3906	1.563	0.7813		10.28	9.14	9.72
Nc1nc2c(-c3ccc(S(=O)(=O)N[C@]4(CO)CCNC4)c(S(N)(=O)=O)c3-c3nnn[nH]3)cccc2[nH]1 [Example 177, (R)-4-(2-amino-1H-benzo[d]imidazol-4-yl)-N1-(3-(hydroxymethyl)pyrrolidin-3-yl)-3-(1H-tetrazol-5-yl)benzene-1,2-disulfonamide]	0.50	0.7813	1.563	0.7813	1.563	1.563		10.17	9.06	9.61
Nc1nc2c(-c3ccc(S(=O)(=O)N[C@@H]4CCCNC4)c(S(N)(=O)=O)c3-c3nnn[nH]3)cccc2[nH]1 [Example 178, (R)-4-(2-amino-1H-benzo[d]imidazol-4-yl)-N^1-(piperidin-3-yl)-3-(1H-tetrazol-5-yl)benzene-1,2-disulfonamide]	1.00	1.563	1.563	1.563	3.125	1.563		10.19	9.06	9.57
Nc1nc2c(-c3ccc(S(=O)(=O)N[C@H]4CCCNC4)c(S(N)(=O)=O)c3-c3nnn[nH]3)cccc2[nH]1 [Example 179, (S)-4-(2-amino-1H-benzo[d]imidazol-4-yl)-N^1-(piperidin-3-yl)-3-(1H-tetrazol-5-yl)benzene-1,2-disulfonamide]	2.00	3.125	1.563	1.563	3.125	3.125		9.66	8.52	9.04
NCCNS(=O)(=O)c1ccc(-c2cc(F)cc3[nH]c(N)nc23)c(-c2nnn[nH]2)c1S(N)(=O)=O [Example 180, 4-(2-amino-6-fluoro-1H-benzo[d]imidazol-4-yl)-N^1-(2-aminoethyl)-3-(1H-tetrazol-5-yl)benzene-1,2-disulfonamide]	0.50	0.3906	0.7813	0.3906	1.563	0.7813		10.33	9.41	9.79
NCCCNS(=O)(=O)c1ccc(-c2cccc3[nH]c(N)nc23)c(-c2nn[nH]n2)c1S(N)(=O)=O [Example 182, 4-(2-amino-1H-benzo[d]imidazol-4-yl)-N1-(3-aminopropyl)-3-(2H-tetrazol-5-yl)benzene-1,2-disulfonamide]	0.80	0.3438	0.4271	0.2578	0.6875	0.5573	10.04	10.41	9.34	
Cn1c(N)nc2c(-c3ccc(S(=O)(=O)NCCCN)c(S(N)(=O)=O)c3-c3nn[nH]n3)cccc21 [Example 183, 4-(2-amino-1-methyl-1H-benzo[d]imidazol-4-yl)-N^1-(3-aminopropyl)-3-(2H-tetrazol-5-yl)benzene-1,2-disulfonamide]	1.00	0.7813	0.7813	0.3906	0.7813	0.7813		10.27	9.47	9.96
C[C@H](N)CNS(=O)(=O)c1ccc(-c2cccc3[nH]c(N)nc23)c(-c2nn[nH]n2)c1S(N)(=O)=O [Example 184, 4-(2-amino-1H-benzo[d]imidazol-4-yl)-N1-((S)-2-aminopropyl)-3-(2H-tetrazol-5-yl)benzene-1,2-disulfonamide]	1.00	0.7813	0.7813	0.3906	0.7813	0.7813		10.46	9.17	9.72
C[C@@H](N)CNS(=O)(=O)c1ccc(-c2cccc3[nH]c(N)nc23)c(-c2nn[nH]n2)c1S(N)(=O)=O [Example 185, 4-(2-amino-1H-benzo[d]imidazol-4-yl)-N1-((R)-2-aminopropyl)-3-(2H-tetrazol-5-yl)benzene-1,2-disulfonamide]	0.65	0.3844	0.5906	0.2135	1.025	0.7688		10.32	9.28	9.72
C[C@@H](CN)NS(=O)(=O)c1ccc(-c2cccc3[nH]c(N)nc23)c(-c2nn[nH]n2)c1S(N)(=O)=O [Example 186]	2.00	1.563	0.7813	0.7813	1.563	1.563	9.05	9.44	8.39	
